Assay results: patent US6680025B2, “Device and method for photoactivation” (Cerus Corporation, priority 1989, dated 2004)

Tested on: HIV 115-mer PCR product
Test: Photoproduct sterilization of PCR (HIV 115-mer carryover)
Assay type: biochemical
Conditions: 30 cycles; for sterilization of PCR (Example 52): 100 μl/ml
Excerpt: FIG. 36 describes a series of oligonucleotides that can be used with the PCR amplification technique. Two primers are described (SK-38 and SK-39) that are complementary to a segment of the HIV genome. Each primer is complementary to sequences at the […] of one of each of two strands of a 115 base pair long segment of the HIV genome. In addition, FIG. 36 describes a crosslinkable probe molecule which is capable of hybridizing and crosslinking to one strand of the 115-mer PCR product. Repeated thermal cycling of SK-38 and SK-39 in the presence of Taq polymerase, appropriate reagents, and a target polynucleotide containing at least the 115-mer segment bounded by SK-38/SK-39, will result in the synthesis of both strands of the 115-mer. Therefore, PCR amplification will occur, with both strands of the 115-mer accumulating geometrically. This is in contrast to the oligonuceleotides described in FIG. 26. Only one primer (SK-39) is described in FIG. 26 which is capable hybridizing to the 3′ end of the 71-mer target oligonucleotide (HRI-55). The lack of a second primer in the system of oligonucleotides described by FIG. 26 prevents this system from being amplified geometrically. Repeated thermal cycling of HRI-55 and SK-39 in the presence of Taq polymerase and appropriate reagents will result in the linear accumulation of the complement of HRI-55.
[…] Aliquots of AMDIIIP photoproduct and the unirradiated compound were added (by pipetting) at 50, 100, 200 and 300 μg/ml to 1 μl aliquots of a 10^6 delution of PCR product copies. PCR product was provided by a) preparing template, b) providing template, c) providing PCR reagents, d) providing polymerase, e) mixing PCR reagents, template, and polymerase to initiate PCR, f) cycling to synthesize PCR product.
Step a): Template Preparation. The templates were derived from actual patient samples. Ficoll-Hypaque separated peripheral blood mononuclear cells (PBMCs) are prepared from individuals enrolled in a longitudinal AIDS study. Approximately 1×10^6 cells are added to 10 ml of RPMI containing 10% fetal calf serum. The cells are pelleted by centrifugation at 20×g for 5 minutes and washed twice with 10 ml PBS. The cell pellet is resuspended in a solution of 50 mM KCl, 10 mM Tris-HCl (pH 8.3), 2.5 mM MgCl2 and subsequently lysed by the addition of 0.5% Tween 20 and 0.5% NP40. Samples are digested with 60 μg/ml proteinase K (Sigma) for 1 hour at 60° C. […]
Again, to evaluate the efficacy of this method of sterilization, a subsequent polymerase chain reaction was carried out for 30 cycles in the presence of α-^32P-dCTP. PCR product was then quantitated by running gels (see above), cutting the bands (detected by autoradiography) and counting the bands on a commercial scintillation counter. […]

SMILES: Cc1oc2ccc3c(C)cc(=O)oc3c2c1CN [AMDMIP, 4′-Aminomethyl-4,5′-dimethylisopsoralen]
- sterilization of PCR (Example 52) (AMDMIP irradiated in CE-III device 15 minutes): extensive sterilization
- sterilization of PCR (Example 52) (AMDMIP irradiated in PTI device 15 minutes): little sterilization
- sterilization of PCR (Example 52) (unirradiated AMDMIP): PCR product is clearly evident
- sterilization of PCR (unirradiated compound at 50, 100, 200, 300 μg/ml): no sterilization
